ChEMBL document CHEMBL1201862, “PubChem BioAssay data set” (2004)
Several values for one entry are separate records, joined by “and”; a condition that tells them apart may be missing. Equal entries are not always repeated. Activity calls are given as the source filed them. For most assays here, no stated cut-off is given here; in the data, actives have a measured IC50 and inactives only a lower limit.

Experiments:
[1] = target: T1, Dual specificity protein phosphatase 6 (Rattus norvegicus, UniProt Q64346); type: functional
T1 sequence (Q64346 whole entry): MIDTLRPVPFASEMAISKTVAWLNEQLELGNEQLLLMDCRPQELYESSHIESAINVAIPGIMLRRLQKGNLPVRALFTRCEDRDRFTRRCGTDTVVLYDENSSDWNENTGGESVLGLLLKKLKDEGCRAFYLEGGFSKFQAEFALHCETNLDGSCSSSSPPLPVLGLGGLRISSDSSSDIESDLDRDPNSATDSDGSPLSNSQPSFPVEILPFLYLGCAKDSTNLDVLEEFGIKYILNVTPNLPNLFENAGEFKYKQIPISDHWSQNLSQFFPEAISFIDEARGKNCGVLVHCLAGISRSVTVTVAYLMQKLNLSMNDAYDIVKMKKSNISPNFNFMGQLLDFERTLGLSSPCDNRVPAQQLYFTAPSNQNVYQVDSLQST

[2] = target: T1, Dual specificity protein phosphatase 6; assay: SAR analysis of inhibitors of MKP-3 - Set 2. [Related pubchem assays (depositor defined):AID1055, AID1661, AID425, AID553, AID566]; type: functional
[3] = target: T2, Tyrosine-protein phosphatase non-receptor type 7 (Homo sapiens, UniProt P35236); assay: redox-dependent HePTP inhibition, mechanism study, biochemical, fluorescence (AID 2068); type: functional
T2 sequence (P35236 whole entry): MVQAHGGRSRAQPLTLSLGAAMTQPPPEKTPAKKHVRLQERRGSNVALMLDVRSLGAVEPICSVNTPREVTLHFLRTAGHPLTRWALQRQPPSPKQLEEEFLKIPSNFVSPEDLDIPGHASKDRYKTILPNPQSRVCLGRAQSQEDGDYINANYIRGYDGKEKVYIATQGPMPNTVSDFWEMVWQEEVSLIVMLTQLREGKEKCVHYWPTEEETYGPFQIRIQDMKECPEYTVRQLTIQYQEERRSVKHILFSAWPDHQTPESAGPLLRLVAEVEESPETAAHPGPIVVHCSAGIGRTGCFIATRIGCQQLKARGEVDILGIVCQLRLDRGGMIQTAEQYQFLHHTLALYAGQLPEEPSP

[4] = target: T1, Dual specificity protein phosphatase 6; assay: MKP-3 phosphatase inhibitors, primary screen, biochemical, rat enzyme, in vitro (AID 425)
[5] = target: T2, Tyrosine-protein phosphatase non-receptor type 7; assay: SAR analysis of chemical inhibitors of HePTP using a Fluorescent assay - Set 2. [Related pubchem assays (depositor defined):AID1059, AID1077, AID1661, AID2085, AID521]; type: functional
[6] = target: T3, Dual specificity protein phosphatase 3 (Homo sapiens, UniProt P51452); assay: SAR VHR1 Fluorescent Assay for In Vitro dose response studies. [Related pubchem assays (depositor defined):AID1654, AID1661, AID1878, AID1992, AID2004, AID2070, AID2085]; type: functional
[7] = target: T3, Dual specificity protein phosphatase 3; assay: VHR1 phosphatase inhibitors, primary screen, biochemical, absorbance, uHTS (AID 1654)
[8] = target: T3, Dual specificity protein phosphatase 3; assay: VHR1 phosphatase inhibitors, biochemical (AID 1878)
[9] = target: DNA dC->dU-editing enzyme APOBEC-3G (Homo sapiens, UniProt Q9HC16); assay: Dose Response confirmation of small molecule APOBEC3G DNA Deaminase Inhibitors via a fluorescence-based single-stranded DNA deaminase assay. [Related pubchem assays (depositor defined):AID493012, AID493028]; type: functional
[10] = target: T3, Dual specificity protein phosphatase 3; assay: SAR VHR1 absorbance Assay for In Vitro dose response studies. [Related pubchem assays (depositor defined):AID1654, AID1661, AID1878, AID1992, AID2004]
[11] = target: T2, Tyrosine-protein phosphatase non-receptor type 7; assay: HePTP (PTPN7) phosphatase inhibitor potency, SAR follow-up, biochemical, set 2 (AID 449736); type: functional
[12] = target: Glucose-6-phosphate 1-dehydrogenase (Homo sapiens, UniProt P11413); assay: human G6PD enzyme inhibitors, dose response, selectivity assay for P. falciparum G6PD inhibitor project, biochemical, fluorescence (AID 504792); type: functional
[13] = target: T4, Rac GTPase-activating protein 1 (Homo sapiens, UniProt Q9H0H5); assay: MgcRacGAP GTPase-activating activity inhibitors, confirmation, biochemical, ADP Hunter fluorescence, primary and confirmatory (AID 624330); type: functional
T4 sequence (Q9H0H5 whole entry): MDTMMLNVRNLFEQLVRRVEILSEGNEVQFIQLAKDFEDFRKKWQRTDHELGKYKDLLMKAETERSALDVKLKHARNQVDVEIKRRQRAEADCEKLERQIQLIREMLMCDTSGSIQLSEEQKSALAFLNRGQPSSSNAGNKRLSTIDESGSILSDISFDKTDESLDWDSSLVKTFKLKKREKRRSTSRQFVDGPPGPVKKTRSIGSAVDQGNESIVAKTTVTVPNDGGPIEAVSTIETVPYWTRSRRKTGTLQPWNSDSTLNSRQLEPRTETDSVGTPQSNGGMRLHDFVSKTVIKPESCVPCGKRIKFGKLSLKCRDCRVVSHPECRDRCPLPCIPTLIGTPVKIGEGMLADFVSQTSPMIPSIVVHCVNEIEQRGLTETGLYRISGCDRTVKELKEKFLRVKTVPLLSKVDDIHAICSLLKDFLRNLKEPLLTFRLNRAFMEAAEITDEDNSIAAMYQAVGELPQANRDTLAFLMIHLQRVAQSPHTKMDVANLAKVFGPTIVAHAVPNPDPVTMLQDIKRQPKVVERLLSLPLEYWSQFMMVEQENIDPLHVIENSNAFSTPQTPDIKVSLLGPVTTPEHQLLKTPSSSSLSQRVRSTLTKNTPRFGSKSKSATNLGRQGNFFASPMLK

[14] = target: DNA dC->dU-editing enzyme APOBEC-3A (Homo sapiens, UniProt P31941); assay: APOBEC3A DNA deaminase inhibitors, dose response, biochemical (AID 504722); type: functional
[15] = target: T3, Dual specificity protein phosphatase 3; assay: SAR VHR1 Fluorescent Assay for In Vitro dose response studies Set 2. [Related pubchem assays (depositor defined):AID1654, AID1661, AID1878]; type: functional
[16] = target: T5, Alkaline phosphatase, tissue-nonspecific isozyme (Homo sapiens, UniProt P05186); assay: TNAP enzyme inhibition by screening hits, dose response, selectivity assay for mouse IAP inhibitor project, biochemical, human TNAP, uHTS hits (AID 488906); type: functional
T5 sequence (P05186 whole entry): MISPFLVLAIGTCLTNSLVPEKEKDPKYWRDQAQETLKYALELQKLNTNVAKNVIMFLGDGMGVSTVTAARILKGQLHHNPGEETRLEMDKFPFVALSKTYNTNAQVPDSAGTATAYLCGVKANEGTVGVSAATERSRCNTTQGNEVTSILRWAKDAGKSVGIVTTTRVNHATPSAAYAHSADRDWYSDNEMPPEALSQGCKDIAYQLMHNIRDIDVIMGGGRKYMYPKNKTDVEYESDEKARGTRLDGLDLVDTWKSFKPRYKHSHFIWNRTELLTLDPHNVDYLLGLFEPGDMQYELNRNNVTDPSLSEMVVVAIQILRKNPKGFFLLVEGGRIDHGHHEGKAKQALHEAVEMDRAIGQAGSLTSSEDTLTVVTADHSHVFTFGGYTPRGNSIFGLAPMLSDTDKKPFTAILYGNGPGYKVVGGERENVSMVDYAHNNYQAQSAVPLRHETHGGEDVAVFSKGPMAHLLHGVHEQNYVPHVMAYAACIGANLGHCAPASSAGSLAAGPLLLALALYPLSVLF

[17] = target: Intestinal-type alkaline phosphatase (Mus musculus, UniProt P24822); assay: PubChem AID 488785; type: functional
[18] = target: Intestinal-type alkaline phosphatase (Homo sapiens, UniProt P09923); assay: inhibition of human intestinal alkaline phosphatase – biochemical, dose response (AID 488876); type: functional
[19] = target: Lysine-specific demethylase 4C (Homo sapiens, UniProt Q9H3R0); assay: GASC-1 (JMJD2C) histone demethylase inhibitors, dose response, biochemical, DELFIA europium, cherry-picked samples (AID 488835); type: functional
Sequence of Lysine-specific demethylase 4C (Q9H3R0 whole entry): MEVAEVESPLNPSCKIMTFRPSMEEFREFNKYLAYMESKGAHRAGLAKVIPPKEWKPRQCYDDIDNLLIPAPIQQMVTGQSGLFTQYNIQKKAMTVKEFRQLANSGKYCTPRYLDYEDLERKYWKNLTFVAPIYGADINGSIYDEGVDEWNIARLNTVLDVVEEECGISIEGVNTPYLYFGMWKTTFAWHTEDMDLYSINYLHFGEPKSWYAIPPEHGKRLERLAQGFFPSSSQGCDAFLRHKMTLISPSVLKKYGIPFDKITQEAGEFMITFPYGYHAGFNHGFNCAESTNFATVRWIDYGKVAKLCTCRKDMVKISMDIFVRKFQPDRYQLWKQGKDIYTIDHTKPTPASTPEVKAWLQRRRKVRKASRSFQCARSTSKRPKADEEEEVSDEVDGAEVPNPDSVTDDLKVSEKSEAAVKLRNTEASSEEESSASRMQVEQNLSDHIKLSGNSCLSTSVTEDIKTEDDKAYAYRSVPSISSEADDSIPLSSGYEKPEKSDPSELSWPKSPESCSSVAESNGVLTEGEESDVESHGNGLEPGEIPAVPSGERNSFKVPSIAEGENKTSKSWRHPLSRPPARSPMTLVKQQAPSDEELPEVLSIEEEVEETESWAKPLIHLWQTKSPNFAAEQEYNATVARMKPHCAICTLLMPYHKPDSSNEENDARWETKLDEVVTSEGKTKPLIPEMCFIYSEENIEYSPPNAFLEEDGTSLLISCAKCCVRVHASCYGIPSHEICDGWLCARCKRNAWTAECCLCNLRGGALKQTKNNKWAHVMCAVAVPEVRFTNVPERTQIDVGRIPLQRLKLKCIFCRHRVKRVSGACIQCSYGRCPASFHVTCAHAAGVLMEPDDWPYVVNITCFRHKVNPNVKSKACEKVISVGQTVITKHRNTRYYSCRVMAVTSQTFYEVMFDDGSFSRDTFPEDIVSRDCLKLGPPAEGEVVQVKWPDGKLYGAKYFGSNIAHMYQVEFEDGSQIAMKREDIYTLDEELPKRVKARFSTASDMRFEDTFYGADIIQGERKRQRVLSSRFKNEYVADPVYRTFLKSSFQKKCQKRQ

T3 sequence (P51452 whole entry): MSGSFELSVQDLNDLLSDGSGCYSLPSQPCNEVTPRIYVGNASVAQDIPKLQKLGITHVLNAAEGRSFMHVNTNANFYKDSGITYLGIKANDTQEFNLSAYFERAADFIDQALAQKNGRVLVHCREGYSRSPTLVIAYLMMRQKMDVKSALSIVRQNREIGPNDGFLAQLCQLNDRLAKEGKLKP
Sequence of DNA dC->dU-editing enzyme APOBEC-3A (P31941 whole entry): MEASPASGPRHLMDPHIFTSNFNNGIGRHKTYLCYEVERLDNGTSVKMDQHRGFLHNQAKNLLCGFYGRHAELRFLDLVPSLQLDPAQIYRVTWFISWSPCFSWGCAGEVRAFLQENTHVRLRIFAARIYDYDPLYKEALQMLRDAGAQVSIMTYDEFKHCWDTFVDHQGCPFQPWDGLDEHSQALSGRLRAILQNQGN
Sequence of Intestinal-type alkaline phosphatase (Homo sapiens, UniProt P09923) (P09923 whole entry): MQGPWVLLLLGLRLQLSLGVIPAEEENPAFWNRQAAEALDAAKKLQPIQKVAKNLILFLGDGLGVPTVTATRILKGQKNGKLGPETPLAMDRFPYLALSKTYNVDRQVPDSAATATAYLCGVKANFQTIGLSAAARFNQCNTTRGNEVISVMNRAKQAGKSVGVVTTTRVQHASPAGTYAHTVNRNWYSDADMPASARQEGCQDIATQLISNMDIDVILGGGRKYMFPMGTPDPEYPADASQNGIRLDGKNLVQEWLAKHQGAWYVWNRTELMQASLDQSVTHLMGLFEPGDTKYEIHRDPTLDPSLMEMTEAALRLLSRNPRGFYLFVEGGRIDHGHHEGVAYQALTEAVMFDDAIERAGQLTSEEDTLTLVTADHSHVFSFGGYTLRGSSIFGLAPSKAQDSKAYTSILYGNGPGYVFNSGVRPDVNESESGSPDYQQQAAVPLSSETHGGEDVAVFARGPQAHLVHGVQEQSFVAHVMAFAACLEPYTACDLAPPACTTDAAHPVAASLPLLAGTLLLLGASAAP
Sequence of DNA dC->dU-editing enzyme APOBEC-3G (Q9HC16 whole entry): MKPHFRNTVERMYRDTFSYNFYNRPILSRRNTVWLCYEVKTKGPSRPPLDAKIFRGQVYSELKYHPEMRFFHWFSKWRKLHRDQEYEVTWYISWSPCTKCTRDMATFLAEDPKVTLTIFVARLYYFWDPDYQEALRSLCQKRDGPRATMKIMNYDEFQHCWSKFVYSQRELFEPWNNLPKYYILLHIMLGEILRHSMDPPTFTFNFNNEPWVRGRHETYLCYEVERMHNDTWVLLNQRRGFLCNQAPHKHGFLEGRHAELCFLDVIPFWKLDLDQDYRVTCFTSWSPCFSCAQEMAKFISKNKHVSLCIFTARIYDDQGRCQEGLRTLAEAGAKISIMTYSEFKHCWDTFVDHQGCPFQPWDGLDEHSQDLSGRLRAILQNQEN
Sequence of Intestinal-type alkaline phosphatase (Mus musculus, UniProt P24822) (P24822 whole entry): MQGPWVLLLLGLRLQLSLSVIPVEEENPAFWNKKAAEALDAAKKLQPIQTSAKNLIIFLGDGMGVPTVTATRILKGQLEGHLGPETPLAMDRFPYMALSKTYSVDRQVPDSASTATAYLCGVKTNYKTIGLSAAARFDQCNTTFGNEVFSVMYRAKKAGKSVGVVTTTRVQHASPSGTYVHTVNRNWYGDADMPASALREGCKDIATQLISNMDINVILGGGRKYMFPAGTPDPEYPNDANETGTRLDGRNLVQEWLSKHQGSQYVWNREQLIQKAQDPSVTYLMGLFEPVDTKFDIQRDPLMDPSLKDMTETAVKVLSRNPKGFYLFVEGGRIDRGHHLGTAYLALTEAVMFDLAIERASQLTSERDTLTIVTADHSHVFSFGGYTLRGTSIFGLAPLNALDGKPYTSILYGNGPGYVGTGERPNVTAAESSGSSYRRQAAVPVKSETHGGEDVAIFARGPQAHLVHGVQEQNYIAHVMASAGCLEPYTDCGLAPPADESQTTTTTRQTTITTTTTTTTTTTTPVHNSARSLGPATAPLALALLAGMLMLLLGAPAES
Sequence of Glucose-6-phosphate 1-dehydrogenase (P11413 whole entry): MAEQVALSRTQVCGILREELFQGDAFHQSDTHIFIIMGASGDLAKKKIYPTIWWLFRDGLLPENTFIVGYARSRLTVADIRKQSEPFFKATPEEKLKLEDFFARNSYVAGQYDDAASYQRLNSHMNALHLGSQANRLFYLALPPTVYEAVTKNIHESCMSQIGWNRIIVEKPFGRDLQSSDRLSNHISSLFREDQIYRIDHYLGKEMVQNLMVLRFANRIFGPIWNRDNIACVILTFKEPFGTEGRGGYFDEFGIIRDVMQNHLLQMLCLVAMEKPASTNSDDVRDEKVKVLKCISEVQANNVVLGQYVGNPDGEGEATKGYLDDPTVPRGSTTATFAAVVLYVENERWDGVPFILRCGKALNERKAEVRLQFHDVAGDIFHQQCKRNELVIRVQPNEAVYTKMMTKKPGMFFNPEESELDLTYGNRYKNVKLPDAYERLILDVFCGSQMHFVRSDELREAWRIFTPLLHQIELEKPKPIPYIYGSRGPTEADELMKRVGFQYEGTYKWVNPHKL

CN1CCN(C(=O)c2sc(=S)n(-c3ccccc3)c2N)CC1
IC50 [1]: > 99 µM (inactive)
IC50 [2]: > 100 µM (inactive)
IC50 [3]: 0.0586 µM (active)
IC50 [4]: > 158 µM (not active)
IC50 [5]: 1.05 µM (active)
IC50 [6]: > 99 µM (inactive)
IC50 [7]: 1.27 µM (active)
IC50 [8]: 3.53 µM (active)
IC50 [9]: 5.51 µM (active)
IC50 [10]: 0.53 µM (active)
IC50 [11]: 1.14 µM (active) and > 100 µM (inactive) and 7.06 µM (active)
IC50 [12]: > 80 µM (inactive)
IC50 [13]: 191 µM (active)
IC50 [14]: > 100 µM (inactive)
IC50 [15]: 0.26 µM (active)

O=C(CCN1C(=O)/C(=C/c2ccco2)SC1=S)Nc1ccc(O)cc1C(=O)O
IC50 [16]: 19.6 µM (active)
IC50 [17]: 1.51 µM (active)
IC50 [18]: > 100 µM (inactive)

CCOC(=O)C1=CC(=C2C(=O)N(CC)C(=S)N(CC)C2=O)c2ccccc2O1
AC50 [19]: 12.2 µM (active)
